The results in this text go back to US9944645B2, “Imidazotriazines and imidazopyrimidines as kinase inhibitors” (Incyte Holdings Corporation, priority 2006, dated 2018).

Molecules are shown by their SMILES.

The assay deals with c-Met kinase (h-Met; histidine-tagged c-Met catalytic domain fusion protein) (Homo sapiens (Human), UniProt P08581). The assay can be described thus: In Vitro c-Met Kinase Enzyme Assays. Particulars: phosphorylation of poly Glu-Tyr, 5 μM ATP, 25 minutes at 30° C. Type of assay: biochemical. A digest of the protocol:
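His-tagged c-Met catalytic domain reacted 25 min at 30° C, within the linear initial-rate range. Phosphotyrosine detected by ELISA with peroxidase-labeled anti-phospho-tyrosine antibody and TMB, OD read at 450 nm (540 nm correction); IC50 from curve fit.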

c-Met kinase (h-Met; histidine-tagged c-Met catalytic domain fusion protein), sequence (P08581 1078-1345): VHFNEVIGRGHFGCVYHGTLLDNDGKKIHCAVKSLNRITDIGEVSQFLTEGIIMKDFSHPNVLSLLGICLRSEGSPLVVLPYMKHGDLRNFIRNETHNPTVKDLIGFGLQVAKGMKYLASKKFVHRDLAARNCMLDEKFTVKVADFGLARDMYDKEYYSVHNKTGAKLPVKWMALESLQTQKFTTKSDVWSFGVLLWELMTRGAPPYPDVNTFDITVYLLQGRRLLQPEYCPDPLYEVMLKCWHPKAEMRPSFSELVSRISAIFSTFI

For `CC(=O)N1CC=C(c2ccc(-c3cnc4ncc(C5(c6ccc7ncccc7c6)CC5)n4n3)cc2)CC1` [Example 96, 6-(1-{2-[4-(1-Acetyl-1,2,3,6-tetrahydropyridin-4-yl)phenyl]imidazo[1,2-b][1,2,4]triazin-7-yl}cyclopropyl)quinoline], the 50% inhibitory concentration (IC50) (commonly the concentration that inhibits the measured activity by half) is below 500 nM.

`CS(=O)(=O)N1CC=C(c2ccc(-c3cnc4ncc(C5(c6ccc7ncccc7c6)CC5)n4n3)cc2)CC1` [Example 97, 6-[1-(2-{4-[1-(Methylsulfonyl)-1,2,3,6-tetrahydropyridin-4-yl]phenyl}imidazo[1,2-b][1,2,4]triazin-7-yl)cyclopropyl]quinoline]: the concentration for half-maximal inhibition (IC50) was below 500 nM.

With `CN(C)C(=O)c1ccc(-c2ccc(-c3cnc4ncc(C5(c6ccc7ncccc7c6)CC5)n4n3)cc2)cn1` [Example 98, N,N-Dimethyl-5-{4-[7-(1-quinolin-6-ylcyclopropyl)imidazo[1,2-b][1,2,4]triazin-2-yl]phenyl}pyridine-2-carboxamide], the 50% inhibitory concentration (IC50) was below 500 nM.

On to `c1cnc2ccc(C3(c4cnc5ncc(-c6ccc(-n7ccnc7)cc6)nn45)CC3)cc2c1` [Example 99, 6-(1-{2-[4-(1H-Imidazol-1-yl)phenyl]imidazo[1,2-b][1,2,4]triazin-7-yl}cyclopropyl)-quinoline], for which the IC50 is below 500 nM.

Consider `O=C(N[C@H]1CC[C@H](O)CC1)c1ccc(-c2cnc3ncc(C4(c5ccc6ncccc6c5)CC4)n3n2)cc1F` [Example 100, 2-Fluoro-N-(trans-4-hydroxycyclohexyl)-4-[7-(1-quinolin-6-ylcyclopropyl)imidazo[1,2-b][1,2,4]triazin-2-yl]benzamide], for which the half-maximal inhibitory concentration (IC50) was below 500 nM.

Take `O=C(NC1CC1)c1ccc(-c2cnc3ncc(C4(c5ccc6ncccc6c5)CC4)n3n2)cc1F` [Example 101, N-Cyclopropyl-2-fluoro-4-[7-(1-quinolin-6-ylcyclopropyl)imidazo[1,2-b][1,2,4]triazin-2-yl]benzamide]: the 50% inhibitory concentration (IC50) was below 500 nM.

`CNC(=O)c1ccc(-c2cnc3ncc(C4(c5ccc6ncccc6c5)CC4)n3n2)cc1F` [Example 102, 2-Fluoro-N-methyl-4-[7-(1-quinolin-6-ylcyclopropyl)imidazo[1,2-b][1,2,4]triazin-2-yl]benzamide]: the IC50 was below 500 nM.

`COCC1(NC(=O)c2ccc(-c3cnc4ncc(C5(c6ccc7ncccc7c6)CC5)n4n3)cc2F)CC1` [Example 103, 2-Fluoro-N-[1-(methoxymethyl)cyclopropyl]-4-[7-(1-quinolin-6-ylcyclopropyl)imidazo[1,2-b][1,2,4]triazin-2-yl]benzamide] registered a half-inhibitory concentration (IC50) below 500 nM.

On to `NC(=O)c1ccc(-c2cnc3ncc(C4(c5ccc6ncccc6c5)CC4)n3n2)cc1F` [Example 104, 2-Fluoro-4-(7-(1-(quinolin-6-yl)cyclopropyl)imidazo[1,2-b][1,2,4]triazin-2-yl)benzamide], for which the half-inhibitory concentration (IC50) was below 500 nM.

As to `O=C(NCC1CCCO1)c1ccc(-c2cnc3ncc(C4(c5ccc6ncccc6c5)CC4)n3n2)cc1` (stereo not shown) [Example 105, 4-[7-(1-Quinolin-6-ylcyclopropyl)imidazo[1,2-b][1,2,4]triazin-2-yl]-N-(tetrahydrofuran-2-ylmethyl)benzamide], the IC50 was below 500 nM.

Turning to `O=C(NCc1ccccn1)c1ccc(-c2cnc3ncc(C4(c5ccc6ncccc6c5)CC4)n3n2)cc1` [Example 106, N-(Pyridin-2-ylmethyl)-4-[7-(1-quinolin-6-ylcyclopropyl)imidazo[1,2-b][1,2,4]triazin-2-yl]benzamide], the IC50 is below 500 nM.

As for `O=C(NC1CC1)c1ccc(-c2cnc3ncc(C4(c5ccc6ncccc6c5)CC4)n3n2)cc1` [Example 107], the IC50 was below 500 nM.

`O=C(NC1CCC1)c1ccc(-c2cnc3ncc(C4(c5ccc6ncccc6c5)CC4)n3n2)cc1` [Example 108, N-Cyclobutyl-4-[7-(1-quinolin-6-ylcyclopropyl)imidazo[1,2-b][1,2,4]triazin-2-yl]benzamide] returned an IC50 below 500 nM.

With `O=C(NC1(c2ccccn2)CC1)c1ccc(-c2cnc3ncc(C4(c5ccc6ncccc6c5)CC4)n3n2)cc1` [Example 109, N-(1-Pyridin-2-ylcyclopropyl)-4-[7-(1-quinolin-6-ylcyclopropyl)imidazo[1,2-b][1,2,4]triazin-2-yl]benzamide], the IC50 is below 500 nM.

On to `CC(C)(CO)NC(=O)c1ccc(-c2cnc3ncc(C4(c5ccc6ncccc6c5)CC4)n3n2)cc1` [Example 110, N-(2-Hydroxy-1,1-dimethylethyl)-4-[7-(1-quinolin-6-ylcyclopropyl)imidazo[1,2-b][1,2,4]triazin-2-yl]benzamide], for which the IC50 was below 500 nM.

On to `O=C(N[C@H](CO)Cc1ccccc1)c1ccc(-c2cnc3ncc(C4(c5ccc6ncccc6c5)CC4)n3n2)cc1` [Example 111, N-[(1S)-1-Benzyl-2-hydroxyethyl]-4-[7-(1-quinolin-6-ylcyclopropyl)imidazo[1,2-b][1,2,4]triazin-2-yl]benzamide], for which the IC50 is below 500 nM.

With `O=C(c1ccc(-c2cnc3ncc(C4(c5ccc6ncccc6c5)CC4)n3n2)cc1)N1CC[C@@H](O)C1` [Example 112, (3R)-1-{4-[7-(1-quinolin-6-ylcyclopropyl)imidazo[1,2-b][1,2,4]triazin-2-yl]benzoyl}pyrrolidin-3-ol], the 50% inhibitory concentration (IC50) was below 500 nM.

As to `O=C(NC1CCOCC1)c1ccc(-c2cnc3ncc(C4(c5ccc6ncccc6c5)CC4)n3n2)cc1` [Example 113, 4-(7-(1-(Quinolin-6-yl)cyclopropyl)imidazo[1,2-b][1,2,4]triazin-2-yl)-N-(tetrahydro-2H-pyran-4-yl)benzamide], the half-inhibitory concentration (IC50) was below 500 nM.

`CN(C(=O)c1ccc(-c2cnc3ncc(C4(c5ccc6ncccc6c5)CC4)n3n2)cc1)C1CC1` [Example 114, N-Cyclopropyl-N-methyl-4-[7-(1-quinolin-6-ylcyclopropyl)imidazo[1,2-b][1,2,4]triazin-2-yl]benzamide] gave a half-inhibitory concentration (IC50) below 500 nM.

Turning to `COCC1(NC(=O)c2ccc(-c3cnc4ncc(C5(c6ccc7ncccc7c6)CC5)n4n3)cc2)CC1` [Example 115, N-[1-(Methoxymethyl)cyclopropyl]-4-[7-(1-quinolin-6-ylcyclopropyl)imidazo[1,2-b][1,2,4]triazin-2-yl]benzamide], the half-maximal inhibitory concentration (IC50) is below 500 nM.

Regarding `COCC1(NC(=O)c2ccc(-c3cnc4ncc(C5(c6ccc7ncccc7c6)CC5)n4n3)cc2)CCC1` [Example 116, N-[1-(Methoxymethyl)cyclobutyl]-4-[7-(1-quinolin-6-ylcyclopropyl)imidazo[1,2-b][1,2,4]triazin-2-yl]benzamide], the IC50 was below 500 nM.

`COC[C@@H](NC(=O)c1ccc(-c2cnc3ncc(C4(c5ccc6ncccc6c5)CC4)n3n2)cc1)C(C)C` [Example 117] registered an IC50 below 500 nM.

`COCC1(NC(=O)c2ccc(-c3cnc4ncc(C5(c6ccc7ncccc7c6)CC5)n4n3)cc2)CCOCC1` [Example 118] returned an IC50 below 500 nM.

For the compound `O=C(Nc1nccs1)c1ccc(-c2cnc3ncc(C4(c5ccc6ncccc6c5)CC4)n3n2)cc1` [Example 119, 4-[7-(1-Quinolin-6-ylcyclopropyl)imidazo[1,2-b][1,2,4]triazin-2-yl]-N-1,3-thiazol-2-ylbenzamide], the half-maximal inhibitory concentration (IC50) is below 500 nM.

Regarding `C[C@H](COC(=O)N(C)C)NC(=O)c1ccc(-c2cnc3ncc(C4(c5ccc6ncccc6c5)CC4)n3n2)cc1` [Example 121], the IC50 was below 500 nM.

For the compound `CC(c1ccc2ncccc2c1)c1cnc2ncc(-c3ccc(C(=O)N[C@@H](C(=O)N(C)C)C(C)C)cc3)nn12` (stereo partly drawn) [Example 122, N-{(1R)-1-[(Dimethylamino)carbonyl]-2-methylpropyl}-4-[7-(1-quinolin-6-ylethyl)imidazo[1,2-b][1,2,4]triazin-2-yl]benzamide], the IC50 is below 500 nM.

Consider `O=C(NC1CC1)c1ccc(-c2cnc3ncc(Cc4ccc5ncccc5c4)n3n2)cc1F` [Example 123, N-Cyclopropyl-2-fluoro-4-[7-(quinolin-6-ylmethyl)imidazo[1,2-b][1,2,4]triazin-2-yl]benzamide], for which the IC50 is below 500 nM.

Take `COCC1(NC(=O)c2ccc(-c3cnc4ncc(Cc5ccc6ncccc6c5)n4n3)cc2F)CC1` [Example 124, 2-Fluoro-N-[1-(methoxymethyl)cyclopropyl]-4-[7-(quinolin-6-ylmethyl)imidazo[1,2-b][1,2,4]triazin-2-yl]benzamide]: the IC50 is below 500 nM.

As for `O=C(NC1CCOCC1)c1ccc(-c2cnc3ncc(Cc4ccc5ncccc5c4)n3n2)cc1F` [Example 125, 2-Fluoro-4-[7-(quinolin-6-ylmethyl)imidazo[1,2-b][1,2,4]triazin-2-yl]-N-(tetrahydro-2H-pyran-4-yl)benzamide], the half-maximal inhibitory concentration (IC50) is below 500 nM.

Regarding `O=C(c1ccc(-c2cnc3ncc(Cc4ccc5ncccc5c4)n3n2)cc1F)N1CC[C@@H](O)C1` [Example 126, (3R)-1-{2-Fluoro-4-[7-(quinolin-6-ylmethyl)imidazo[1,2-b][1,2,4]triazin-2-yl]benzoyl}pyrrolidin-3-ol], the IC50 was below 500 nM.

Turning to `NC(=O)c1ccc(-c2cnc3ncc(Cc4ccc5ncccc5c4)n3n2)cc1F` [Example 127, 2-Fluoro-4-[7-(quinolin-6-ylmethyl)imidazo[1,2-b][1,2,4]triazin-2-yl]benzamide], the IC50 was below 500 nM.

In the case of `O=C(N[C@H]1CC[C@H](O)CC1)c1ccc(-c2cnc3ncc(Cc4ccc5ncccc5c4)n3n2)cc1F` [Example 128, 2-Fluoro-N-(trans-4-hydroxycyclohexyl)-4-[7-(quinolin-6-ylmethyl)imidazo[1,2-b][1,2,4]triazin-2-yl]benzamide], the half-inhibitory concentration (IC50) is below 500 nM.

In turn, `Fc1cc(-c2cnc3ncc(Cc4ccc5ncccc5c4)n3n2)ccc1-n1ccnc1` [Example 129, 6-{2-[3-Fluoro-4-(1H-imidazol-1-yl)phenyl]imidazo[1,2-b][1,2,4]triazin-7-ylmethyl}quinoline] showed an IC50 below 500 nM.

`O=C1OCCN1c1ccc(-c2cnc3ncc(Cc4ccc5ncccc5c4)n3n2)cc1F` [Example 130, 3-{2-Fluoro-4-[7-(quinolin-6-ylmethyl)imidazo[1,2-b][1,2,4]triazin-2-yl]phenyl}-1,3-oxazolidin-2-one] came in with an IC50 below 500 nM.
